In US20260242416A1, “ANTIMICROBIAL PEPTIDES” (priority 2023, published 2026):
In brackets after ≈: the same amount, converted by molar mass. Where a SMILES comes first, the peptide text is derived from it.

How the values were obtained:
[1] = test system: E. coli ATCC 25922; assay type: cell-based, Escherichia coli; settings: ATCC 25922
Summary of the method: (§1)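 MIC taken as lowest peptide level showing no visible growth after 20-24 h at 37° C. Twofold series 128-0.5 μg/mL in Mueller-Hinton broth, polypropylene plates, final inoculum 2-8×10^5 cfu/mL, per CLSI with cationic-peptide adaptations.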

[2] = test system: Salmonella enterica serovar Enteritidis (human clinical isolate); assay type: cell-based; settings: serovar Enteritidis (human clinical isolate)
Summary of the method: as §1

[3] = test system: S. aureus ATCC 29213; assay type: cell-based, Staphylococcus aureus; settings: ATCC 29213
Summary of the method: as §1

[4] = test system: E. coli ATCC 25922, Salmonella Enteritidis, S. aureus ATCC 29213; assay: Broth microdilution, panel result (at least one / all strains), Example 2; assay type: cell-based; design: key to inhibitory activity (asterisk): *Indicates inhibitory activity; settings: for inhibitory activity (asterisk): Table 14, against at least one of E. coli ATCC 25922, Salmonella Enteritidis, S. aureus ATCC 29213
Procedure: The antimicrobial activity of the putative AMPs was determined by a broth microdilution assay as described by the Clinical and Laboratory Standards Institute, with the published adaptations for testing of cationic peptides. Escherichia coli 25922 and Staphylococcus aureus 29213 isolates were purchased from the American Type Culture Collection (ATCC; Manassas, VA, USA). A human clinical isolate of Salmonella enterica serovar Enteritidis was provided by the BC Centre for Disease Control. Bacteria from stocks stored at −80° C. were streaked onto nonselective Columbia blood agar with 5% sheep blood (Oxoid) and incubated overnight at 37° C. Next, 2-4 colonies were streaked onto a new agar plate to ensure uniform health of colonies used in the broth microdilution assay. Isolated colonies were suspended in MHB and the optical density was measured with a spectrophotometer to create an initial inoculum concentration of approximately 1×10^8 cfu/mL. The inoculum was diluted 1:250 to a final concentration of 2-8×10^5 cfu/mL, which was confirmed by performing a Total Viability Count (TVC). The TVC consisted of plating a 1:1000 dilution of the final inoculum on nonselective media and was also used to confirm the health and purity of the inoculum in each trial.
Lyophilized 80 μg peptide aliquots synthesized by GenScript (Piscataway, NJ, USA) were resuspended to 1.28 mg/mL with UltraPure water (Thermo Fisher Scientific, Waltham, MA, USA) and serially diluted in polypropylene 96-well microtiter plates (Greiner Bio-One #650261, Kremsmunster, Austria) from 128 down to 0.5 μg/mL. Two columns per plate were reserved for growth and sterility controls. Inoculum was added to the wells containing the peptide and the growth control. Plates were incubated for 20-24 h at 37° C. The minimum inhibitory concentration (MIC) was determined as the lowest peptide concentration where there was no visible bacterial growth.

SMILES: CC[C@H](C)[C@H](NC(=O)[C@H](CC(=O)O)NC(=O)[C@H](CC(C)C)NC(=O)[C@H](Cc1c[nH]c2ccccc12)NC(=O)CN)C(=O)N[C@@H](C)C(=O)N[C@@H](CCCCN)C(=O)N[C@@H](CCCCN)C(=O)N[C@H](C(=O)N[C@@H](C)C(=O)N[C@@H](CO)C(=O)N[C@H](C(=O)N[C@H](C(=O)N[C@@H](C)C(=O)NCC(=O)N[C@@H](CC(C)C)C(=O)NCC(=O)N[C@@H](CCCCN)C(=O)N[C@@H](CCCNC(=N)N)C(=O)O)C(C)C)C(C)C)C(C)C [LiVe2, GWLDIAKKVASVVAGLGKR] (H-GWLDIAKKVASVVAGLGKR-OH; N-terminus and C-terminus assumed)
- MIC (ug/mL) E. coli [1]: 4 to 8 µg/mL
- MIC (ug/mL) S. Enteritidis [2]: 64 to 128 µg/mL
- MIC (ug/mL) S. aureus [3]: 64 µg/mL (≈ 32.5 µM)
- inhibitory activity (asterisk) [4]: 40.* GWLDIAKKVASVVAGLGKR

SMILES: CC(C)C[C@H](NC(=O)[C@H](CCCCN)NC(=O)[C@H](Cc1c[nH]c2ccccc12)NC(=O)[C@H](CC(C)C)NC(=O)[C@@H](NC(=O)[C@H](CC(C)C)NC(=O)[C@H](Cc1ccccc1)NC(=O)[C@H](CC(C)C)NC(=O)[C@@H](N)CCCCN)[C@@H](C)O)C(=O)N[C@@H](CCCCN)C(=O)N[C@@H](CCCNC(=N)N)C(=O)O [NaVi3, KLFLTLWKLKR] (H-KLFLTLWKLKR-OH; N-terminus and C-terminus assumed)
- MIC (ug/mL) E. coli [1]: 8 to 16 µg/mL
- MIC (ug/mL) S. Enteritidis [2]: 64 µg/mL (≈ 44.3 µM)
- MIC (ug/mL) S. aureus [3]: 128 µg/mL (≈ 88.5 µM)
- inhibitory activity (asterisk) [4]: 895.* KLFLTLWKLKR

SMILES: CC[C@H](C)[C@H](NC(=O)CNC(=O)[C@H](CO)NC(=O)[C@H](CC(C)C)NC(=O)[C@H](CC(C)C)NC(=O)CN)C(=O)N[C@@H](CC(C)C)C(=O)NCC(=O)N[C@@H](C)C(=O)NCC(=O)N[C@@H](CCCCN)C(=O)N[C@@H](CCCCN)C(=O)N[C@H](C(=O)N[C@H](C(=O)N[C@@H](CS)C(=O)NCC(=O)N[C@@H](Cc1ccccc1)C(=O)N[C@@H](CO)C(=O)NCC(=O)N[C@@H](CC(C)C)C(=O)N[C@@H](CS)C(=O)O)C(C)C)[C@@H](C)CC [OdMa1] (H-GLLSGILGAGKKIVCGFSGLC-OH; N-terminus and C-terminus assumed)
- MIC (ug/mL) E. coli [1]: 8 to 16 µg/mL
- MIC (ug/mL) S. Enteritidis [2]: 128 µg/mL (≈ 64.2 µM)
- MIC (ug/mL) S. aureus [3]: 64 µg/mL (≈ 32.1 µM)
- inhibitory activity (asterisk) [4]: 71.* GLLSGILGAGKKIVCGFSGLC

SMILES: CC[C@H](C)[C@H](NC(=O)[C@H](CCCCN)NC(=O)[C@H](CCCCN)NC(=O)CNC(=O)[C@H](C)NC(=O)CNC(=O)[C@H](CC(C)C)NC(=O)[C@H](CC(C)C)NC(=O)CNC(=O)[C@H](CO)NC(=O)[C@H](CC(C)C)NC(=O)[C@H](CC(C)C)NC(=O)CN)C(=O)N[C@H](C(=O)N[C@@H](CS)C(=O)NCC(=O)N[C@@H](CC(C)C)C(=O)N[C@@H](CO)C(=O)NCC(=O)N[C@@H](CCSC)C(=O)N[C@@H](CS)C(=O)O)C(C)C [OdMa3] (H-GLLSGLLGAGKKIVCGLSGMC-OH; N-terminus and C-terminus assumed)
- MIC (ug/mL) E. coli [1]: 8 to 16 µg/mL
- MIC (ug/mL) S. Enteritidis [2]: 64 µg/mL (≈ 32.4 µM)
- MIC (ug/mL) S. aureus [3]: 32 µg/mL (≈ 16.2 µM)
- inhibitory activity (asterisk) [4]: 59.* GLLSGLLGAGKKIVCGLSGMC

SMILES: CC[C@H](C)[C@H](NC(=O)CN)C(=O)N[C@@H](CC(C)C)C(=O)N[C@@H](CO)C(=O)NCC(=O)N[C@@H](CC(C)C)C(=O)N[C@@H](CC(C)C)C(=O)NCC(=O)N[C@@H](C)C(=O)NCC(=O)N[C@@H](CCCCN)C(=O)N[C@@H](CCCCN)C(=O)N[C@H](C(=O)N[C@H](C(=O)N[C@@H](CS)C(=O)O)C(C)C)[C@@H](C)CC [OdMa4, GILSGLLGAGKKIVC] (H-GILSGLLGAGKKIVC-OH; N-terminus and C-terminus assumed)
- MIC (ug/mL) E. coli [1]: 8 to 16 µg/mL
- MIC (ug/mL) S. Enteritidis [2]: 32 µg/mL (≈ 22.4 µM)
- MIC (ug/mL) S. aureus [3]: > 128 µg/mL
- inhibitory activity (asterisk) [4]: 62.* GILSGLLGAGKKIVC
- spectrum of antimicrobial activity ([4]; panel of E. coli, Salmonella Enteritidis, S. aureus, up to 128 μg/mL): selective antimicrobial activity against the Gram-negative bacteria tested

SMILES: CC[C@H](C)[C@H](NC(=O)CN)C(=O)N[C@@H](CC(C)C)C(=O)N[C@@H](CO)C(=O)NCC(=O)N[C@@H](CC(C)C)C(=O)N[C@@H](CC(C)C)C(=O)NCC(=O)N[C@@H](C)C(=O)NCC(=O)N[C@@H](CCCCN)C(=O)N[C@@H](CCCCN)C(=O)N[C@H](C(=O)N[C@H](C(=O)N[C@@H](CS)C(=O)NCC(=O)N[C@@H](CC(C)C)C(=O)N[C@@H](CO)C(=O)NCC(=O)N[C@@H](CC(C)C)C(=O)N[C@@H](CS)C(=O)O)C(C)C)[C@@H](C)CC [OdMa5] (H-GILSGLLGAGKKIVCGLSGLC-OH; N-terminus and C-terminus assumed)
- MIC (ug/mL) E. coli [1]: 8 to 16 µg/mL
- MIC (ug/mL) S. Enteritidis [2]: 64 to 128 µg/mL
- MIC (ug/mL) S. aureus [3]: 8 to 16 µg/mL
- inhibitory activity (asterisk) [4]: 1091.* GILSGLLGAGKKIVCGLSGLC

SMILES: CC[C@H](C)[C@H](NC(=O)[C@H](CCCCN)NC(=O)[C@H](CCCCN)NC(=O)CNC(=O)[C@@H](NC(=O)CNC(=O)[C@H](CC(C)C)NC(=O)[C@@H](NC(=O)CNC(=O)[C@H](CO)NC(=O)[C@H](CC(C)C)NC(=O)[C@H](CC(C)C)NC(=O)CN)C(C)C)C(C)C)C(=O)N[C@H](C(=O)N[C@@H](CS)C(=O)NCC(=O)N[C@@H](CC(C)C)C(=O)N[C@@H](CO)C(=O)NCC(=O)N[C@@H](CC(C)C)C(=O)N[C@@H](CS)C(=O)O)C(C)C [OdMa6] (H-GLLSGVLGVGKKIVCGLSGLC-OH; N-terminus and C-terminus assumed)
- MIC (ug/mL) E. coli [1]: 8 to 16 µg/mL
- MIC (ug/mL) S. Enteritidis [2]: 128 µg/mL (≈ 64.9 µM)
- MIC (ug/mL) S. aureus [3]: 16 to 32 µg/mL
- inhibitory activity (asterisk) [4]: 1092.* GLLSGVLGVGKKIVCGLSGLC

SMILES: CC(C)C[C@H](NC(=O)CNC(=O)[C@H](CO)NC(=O)[C@H](CC(C)C)NC(=O)CNC(=O)[C@H](CS)NC(=O)[C@H](CC(C)C)NC(=O)[C@@H](NC(=O)[C@H](CCCCN)NC(=O)[C@H](CCCCN)NC(=O)CNC(=O)[C@@H](NC(=O)CNC(=O)[C@H](CC(C)C)NC(=O)[C@@H](NC(=O)CNC(=O)[C@H](CO)NC(=O)[C@H](CC(C)C)NC(=O)[C@H](CC(C)C)NC(=O)CN)C(C)C)C(C)C)C(C)C)C(=O)N[C@@H](CS)C(=O)O [OdMa7] (H-GLLSGVLGVGKKVLCGLSGLC-OH; N-terminus and C-terminus assumed)
- MIC (ug/mL) E. coli [1]: 8 to 16 µg/mL
- MIC (ug/mL) S. Enteritidis [2]: 128 µg/mL (≈ 64.9 µM)
- MIC (ug/mL) S. aureus [3]: 16 to 32 µg/mL
- inhibitory activity (asterisk) [4]: 1093.* GLLSGVLGVGKKVLCGLSGLC

SMILES: CC[C@H](C)[C@H](NC(=O)CNC(=O)[C@H](CO)NC(=O)[C@@H](NC(=O)[C@H](CC(C)C)NC(=O)CN)[C@@H](C)CC)C(=O)N[C@@H](CC(C)C)C(=O)NCC(=O)N[C@@H](C)C(=O)NCC(=O)N[C@@H](CCCCN)C(=O)N[C@@H](CCCCN)C(=O)N[C@H](C(=O)N[C@@H](CC(C)C)C(=O)N[C@@H](CS)C(=O)O)C(C)C [OdMa9, GLISGILGAGKKVLC] (H-GLISGILGAGKKVLC-OH; N-terminus and C-terminus assumed)
- MIC (ug/mL) E. coli [1]: 64 to 128 µg/mL
- MIC (ug/mL) S. Enteritidis [2]: 128 µg/mL (≈ 89.6 µM)
- MIC (ug/mL) S. aureus [3]: > 128 µg/mL
- inhibitory activity (asterisk) [4]: 68.* GLISGILGAGKKVLC

SMILES: CC[C@H](C)[C@H](NC(=O)CNC(=O)[C@H](CO)NC(=O)[C@@H](NC(=O)[C@H](CC(C)C)NC(=O)CN)[C@@H](C)CC)C(=O)N[C@@H](CC(C)C)C(=O)NCC(=O)N[C@@H](C)C(=O)NCC(=O)N[C@@H](CCCCN)C(=O)N[C@@H](CCCCN)C(=O)N[C@H](C(=O)N[C@@H](CC(C)C)C(=O)N[C@@H](CS)C(=O)NCC(=O)N[C@@H](CC(C)C)C(=O)N[C@@H](CO)C(=O)NCC(=O)N[C@@H](CC(C)C)C(=O)N[C@@H](CS)C(=O)O)C(C)C [OdMa10] (H-GLISGILGAGKKVLCGLSGLC-OH; N-terminus and C-terminus assumed)
- MIC (ug/mL) E. coli [1]: 16 to 32 µg/mL
- MIC (ug/mL) S. Enteritidis [2]: > 128 µg/mL
- MIC (ug/mL) S. aureus [3]: 64 to 128 µg/mL
- inhibitory activity (asterisk) [4]: 1094.* GLISGILGAGKKVLCGLSGLC

SMILES: CC[C@H](C)[C@H](NC(=O)CN)C(=O)N[C@@H](CC(C)C)C(=O)N[C@@H](CO)C(=O)NCC(=O)N[C@@H](CC(C)C)C(=O)N[C@@H](CC(C)C)C(=O)NCC(=O)N[C@@H](C)C(=O)NCC(=O)N[C@@H](CCCCN)C(=O)N[C@@H](CCCCN)C(=O)N[C@@H](CC(C)C)C(=O)N[C@@H](C)C(=O)N[C@@H](CS)C(=O)NCC(=O)N[C@@H](CC(C)C)C(=O)N[C@H](C(=O)NCC(=O)N[C@@H](CC(C)C)C(=O)N[C@@H](CS)C(=O)O)[C@@H](C)CC [OdTo1] (H-GILSGLLGAGKKLACGLIGLC-OH; N-terminus and C-terminus assumed)
- MIC (ug/mL) E. coli [1]: 8 µg/mL (≈ 4.09 µM)
- MIC (ug/mL) S. Enteritidis [2]: 32 to 64 µg/mL
- MIC (ug/mL) S. aureus [3]: 8 to 16 µg/mL
- inhibitory activity (asterisk) [4]: 153.* GILSGLLGAGKKLACGLIGLC
